Results from patent US12622938B2 (priority 2020, dated 2026).
Converted amounts (≈) assume the structure as drawn.

Experiments:
Vaccinia virus = assay: microbe, parasite or virus in culture; type: cell-based
[1] = test system: Flu A (H5N1) Vietnam/1203/2004H; assay: microbe, parasite or virus in culture; type: cell-based
Flu B Malaysia/2506/2004 [2] = assay: Flu B Malaysia/2506/2004, Neutral Red assay, MDCK; type: cell-based; conditions: control compound
Flu B Malaysia/2506/2004 [3] = assay: Flu B Malaysia/2506/2004, Visual assay, MDCK; type: cell-based
Flu B Shanghai/361/02 [4] = assay: Flu B Shanghai/361/02, Neutral Red assay, MDCK; type: cell-based; conditions: control compound, read-out: CTRL IC50
Flu B Shanghai/361/02 [5] = assay: Flu B Shanghai/361/02, Visual assay, MDCK; type: cell-based
HFF cells = conditions: human

Nc1ccn(C[C@@H](CO)OCP(=O)(O)O)c(=O)n1 [Cidofovir]
inhibition at 0.56 µg/mL (Vaccinia virus; Orthopoxvirus vaccinia, HFF, 0.56 μg/mL, read-out: Viral Inhibition Rate): 11%
inhibition at 1.67 µg/mL (Vaccinia virus; Orthopoxvirus vaccinia, HFF, 1.67 μg/mL, read-out: Viral Inhibition Rate): 53%

C=C(CC[C@@H](C(=O)O)[C@H]1C[C@H](O)[C@@]2(C)C3=CC[C@H]4C(C)(C)[C@@H](O)CC[C@]4(C)C3=CC[C@]12C)C(C)C [Dehydrosulphurenic Acid]
Viral Inhibition Rate (Vaccinia virus; 11 μg/mL): 16%
Viral Inhibition Rate (Vaccinia virus; 33 μg/mL): 58%

C=C(CC[C@@H](C(=O)O)[C@H]1CC[C@@]2(C)C3=C(CC[C@]12C)[C@@]1(C)CC[C@H](O)C(C)(C)[C@@H]1CC3)C(C)C [Eburicoic Acid]
inhibition at 11 µg/mL (Vaccinia virus; Orthopoxvirus vaccinia, HFF, 11 μg/mL, read-out: Viral Inhibition Rate): 27%
inhibition at 33 µg/mL (Vaccinia virus; Orthopoxvirus vaccinia, HFF, 33 μg/mL, read-out: Viral Inhibition Rate): 29%
inhibition at 100 µg/mL (Vaccinia virus; Orthopoxvirus vaccinia, HFF, 100 μg/mL, read-out: Viral Inhibition Rate): 55%

NC(=O)c1ncn([C@@H]2O[C@H](CO)[C@@H](O)[C@H]2O)n1 [Ribavirin]
CTRL SI [1]: >46
IC50 ([1]; Influenza A virus, H5N1, MDCK, read-out: CTRL IC50): > 320 µg/mL
CTRL EC50 (Flu B Malaysia/2506/2004 [2]): 10 µg/mL
IC50 (Flu B Malaysia/2506/2004 [2]; read-out: CTRL IC50): > 320 µg/mL
CTRL EC50 (Flu B Malaysia/2506/2004 [3]; control compound, Flu B Malaysia/2506/2004, Visual): 3 µg/mL
IC50 (Flu B Malaysia/2506/2004 [3]; read-out: CTRL IC50): > 320 µg/mL
IC50 (Flu B Shanghai/361/02 [4]): > 320 µg/mL
CTRL SI (Flu B Shanghai/361/02 [5]; control compound, Flu B Shanghai/361/02, Visual): >160
EC50 (Flu B Shanghai/361/02 [5]; read-out: CTRL EC50): 2 µg/mL (≈ 8.19 µM)
IC50 (Flu B Shanghai/361/02 [5]; read-out: CTRL IC50): > 320 µg/mL

C=C(CC[C@@H](C(=O)O)[C@H]1C[C@H](O)[C@@]2(C)C3=C(CC[C@]12C)[C@@]1(C)CC[C@H](O)C(C)(C)[C@@H]1CC3)C(C)C [Sulphurenic acid]
Viral Inhibition Rate (Vaccinia virus; 3.7 μg/mL): 36%
Viral Inhibition Rate (Vaccinia virus; 11 μg/mL): 51%
Viral Inhibition Rate (Vaccinia virus; 33 μg/mL): 58%

CCO [ethanol]
CC50 (HFF cells): 7%
